Test results published in US10562900B2 (Shanghai Haihe Pharmaceutical Co., Ltd., priority 2014, dated 2020).

Experiments:
FGFR1 = FGFR1 (Homo sapiens (Human), UniProt P11362); assay: FGFR1 kinase activity at the molecular level (ELISA, Poly(Glu,Tyr) 4:1 substrate); type: biochemical; conditions: kinase domain recombinant protein, 5 μM ATP
Procedure: (§1) 100 μL/well of 2 mg/mL OPD developing solution (diluted with 0.1M citric acid-sodium citrate buffer containing 0.03% H2O2 (pH=5.4)), and reacted in dark for 1-10 minutes at 25° C.

FGFR2 = FGFR2 (Homo sapiens (Human), UniProt P21802); assay: FGFR2 kinase activity at the molecular level (ELISA, Poly(Glu,Tyr) 4:1 substrate); type: biochemical; conditions: kinase domain recombinant protein, 5 μM ATP
Procedure: as §1

FGFR1, sequence (P11362 478-767): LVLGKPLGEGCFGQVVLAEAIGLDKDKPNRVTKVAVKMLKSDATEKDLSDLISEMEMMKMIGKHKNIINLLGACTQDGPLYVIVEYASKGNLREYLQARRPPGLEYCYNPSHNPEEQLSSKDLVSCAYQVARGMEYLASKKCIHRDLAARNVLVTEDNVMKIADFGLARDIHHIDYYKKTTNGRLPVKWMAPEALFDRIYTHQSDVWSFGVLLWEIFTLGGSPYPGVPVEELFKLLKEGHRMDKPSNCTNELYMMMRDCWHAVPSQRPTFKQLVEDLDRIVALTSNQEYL
FGFR2, sequence (P21802 481-770): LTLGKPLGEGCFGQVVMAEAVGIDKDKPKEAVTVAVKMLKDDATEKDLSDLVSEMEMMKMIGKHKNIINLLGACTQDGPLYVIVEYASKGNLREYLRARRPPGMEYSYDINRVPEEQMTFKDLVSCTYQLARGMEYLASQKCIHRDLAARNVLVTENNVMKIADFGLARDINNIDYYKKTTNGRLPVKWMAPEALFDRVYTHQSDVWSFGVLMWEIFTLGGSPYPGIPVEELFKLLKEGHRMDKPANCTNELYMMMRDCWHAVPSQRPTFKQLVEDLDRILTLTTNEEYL

IC50 (FGFR1)	IC50 (FGFR2)	SMILES
< 100 nM	< 100 nM	COc1cc(OC)c(Cl)c(-c2ccc3c(NC(=O)c4ccc(N5CCOCC5)cc4)n[nH]c3n2)c1Cl [Example 70, N-(6-(2,6-dichloro-3,5-dimethoxyphenyl)-1H-pyrazolo [3,4-b]pyridin-3-yl)-4-morpholino benzamide]
< 100 nM	< 100 nM	COc1cc(OC)c(Cl)c(-c2ccc3c(NC(=O)c4ccc(CCC(=O)N(C)C)cc4)n[nH]c3c2)c1Cl [Example 33, N-(6-(2,6-dichloro-3,5-dimethoxyphenyl)-1H-indazole-3-yl)-4-(3-(dimethylamino)-3-oxopropyl)benzamide]
< 100 nM	< 100 nM	COc1cc(OC)c(Cl)c(-c2ccc3c(NC(=O)c4ccc(N5CC(C)(C)NC(C)(C)C5)cc4)n[nH]c3n2)c1Cl [Example 99]
< 100 nM	< 100 nM	COc1cc(OC)c(Cl)c(-c2ccc3c(NC(=O)c4ccc(N5CCNCC5)cc4)n[nH]c3c2)c1Cl [Example 25, N-(6-(2,6-dichloro-3,5-dimethoxyphenyl)-1H-indazole-3-yl)-4-(piperazine-1-yl)benzamide]
< 100 nM	< 100 nM	COc1cc(OC)c(Cl)c(-c2ccc3c(NC(=O)c4ccc(CN(C)C)cc4)n[nH]c3c2)c1Cl [Example 34, N-(6-(2,6-dichloro-3,5-dimethoxyphenyl)-1H-indazole-3-yl)-4-((dimethylamino)methyl)benzamide]
< 100 nM	< 100 nM	COc1cc(OC)c(Cl)c(-c2ccc3c(NC(=O)c4ccc(NCCN(C)C)cc4)n[nH]c3c2)c1Cl [Example 20, N-(6-(2,6-dichloro-3,5-dimethoxyphenyl)-1H-indazole-3-yl)-4-((2-(dimethylamino)ethyl)amino)benzamide]

Continued, molecule first:

SMILES	IC50 (FGFR1)	IC50 (FGFR2)
COc1cc(OC)c(Cl)c(-c2ccc3c(NC(=O)c4ccc(N5CCN(C(=O)C(C)(C)C)CC5)cc4)n[nH]c3c2)c1Cl [Example 30, N-(6-(2,6-dichloro-3,5-dimethoxyphenyl)-1H-indazole-3-yl)-4-(4-pivaloylpiperazine-1-yl)benzamide]	< 100 nM	< 100 nM
COc1cc(C(=O)Nc2n[nH]c3nc(-c4c(Cl)c(OC)cc(OC)c4Cl)ccc23)ccc1N1CCNC(C)(C)C1 [Example 101, N-(6-(2,6-dichloro-3,5-dimethoxyphenyl)-1H-pyrazolo [3,4-b]pyridin-3-yl)-4-(3,3-dimethylpiperazine-1-yl)-3-methoxybenzamide]	< 100 nM	< 100 nM
COc1cc(OC)c(Cl)c(-c2ccc3c(NC(=O)c4ccc(N5C[C@@H](C)N[C@@H](C)C5)cc4)n[nH]c3n2)c1 [Example 66]	< 100 nM	< 100 nM
COc1cc(OC)cc(-c2ccc3c(NC(=O)c4ccc(N5C[C@@H](C)N[C@@H](C)C5)cc4)n[nH]c3n2)c1 [Example 68, N-(6-(3,5-dimethoxyphenyl)-1H-pyrazolo [3,4-b]pyridin-3-yl)-4-(((3R,5S)-3,5-dimethylpiperazine-1-yl))benzamide]	< 100 nM	< 100 nM
COc1cc(OC)c(Cl)c(-c2ccc3c(NC(=O)c4ccc(N5CCNC(C)(C)C5)c(F)c4)n[nH]c3n2)c1Cl [Example 91, N-(6-(2,6-dichloro-3,5-dimethoxyphenyl)-1H-pyrazolo [3,4-b]pyridin-3-yl)-4-(3,3-dimethylpiperazine-1-yl)-3-fluorobenzamide]	< 100 nM	< 100 nM
COc1cc(OC)c(Cl)c(-c2ccc3c(NC(=O)c4cccc(N5CCN(C)CC5)c4)n[nH]c3c2)c1Cl [Example 23, N-(6-(2,6-dichloro-3,5-dimethoxyphenyl)-1H-indazole-3-yl)-3-(4-methyl-1-yl)benzamide]	< 100 nM	< 100 nM
COc1cc(OC)c(Cl)c(-c2ccc3c(NC(=O)c4ccc(N5CCC(N(C)C)CC5)cc4)n[nH]c3c2)c1Cl [Example 37, N-(6-(2,6-dichloro-3,5-dimethoxyphenyl)-1H-indazole-3-yl)-4-(4-(dimethylamino)piperidine-1-yl)benzamide]	< 100 nM	< 100 nM
